We go through 1 compound from article PMC11869428 (Microbial Cell Factories, 2025).

The target of this assay is T1, GenP (Micromonospora echinospora, UniProt A0A1C4WLH3).
T1 sequence (A0A1C4WLH3 1-268): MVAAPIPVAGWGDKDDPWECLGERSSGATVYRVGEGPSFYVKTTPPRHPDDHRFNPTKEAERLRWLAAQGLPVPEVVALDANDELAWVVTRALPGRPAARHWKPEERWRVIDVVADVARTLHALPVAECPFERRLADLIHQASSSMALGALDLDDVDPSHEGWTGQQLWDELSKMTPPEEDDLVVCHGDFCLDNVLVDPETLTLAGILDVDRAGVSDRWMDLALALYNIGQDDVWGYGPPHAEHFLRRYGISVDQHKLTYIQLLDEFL
The assay is described as follows: preparative phosphorylation, HPLC-ELSD. Type of assay: biochemical. As to conditions: ATP […], MgCl2 […], Tris […] pH […] °C, […] h.

Each structure is given as a SMILES string.

Turning to `CN[C@@H]1[C@@H](O)[C@@H](O[C@@H]2[C@@H](O)[C@H](O[C@H]3O[C@H](CN)[C@@H](O)[C@H](O)[C@H]3N)[C@@H](N)C[C@H]2N)OC[C@]1(C)O` [JI-20A], the “preparative phosphorylation, HPLC-ELSD” value was “JI-20A-P, JI-20Ba-P, and JI-20B-P were obtained through the catalysis of GenP”.
